The results in this text go back to US20100215653A1, “METHODS OF TREATING NEOPLASTIC, AUTOIMMUNE AND INFLAMMATORY DISEASES” (Seattle Genetics, Inc., priority 2006, published 2010).

Entries after “also recorded” stand apart in the source; their conditions may differ.

One series concerns HEL9217 cells. Kind of series: HEL9217 disseminated MDR-positive AML model in SCID mice. Type of series: in vivo. The text has this: (§1) The MDR-negative HL60 cell line and the MDR-positive HEL9217 and TF1-α cell lines were used. […] Disease symptoms typically developed between about 35 and about 80 days, and included hind limb paralysis, scruffy coat, weight loss, palpable tumors, and/or tumor masses in bone, peritoneal cavity, or soft tissues. Human CD33+ tumor cells were detected in the blood, bone marrow, and lymph nodes of the majority of the mice by flow cytometry (FIG. 25). Solid tumors associated with bone or soft tissues were found in 20 to 60% of the mice.

Another series concerns KG-1 AML cell line. Kind of series: Cytokine production by KG-1 AML cell line after TNF-alpha. Type of series: cell-based, human. Particulars: 2.5 μg/ml pre-treatment, then 1 ng/ml TNF-alpha, 18 h. The procedure: Media was harvested 18 h later for cytokine analyses.
For a further series, the system named is AML tumor cell lines. Kind of series: IL-8 / MCP-1 production by AML tumor cell lines after TNF-α (ELISA). Type of series: cell-based, human. Particulars: 10 μg/ml SGN-33 before 1 ng/ml TNF-α; 18 h; p<0.05, p<0.01 (FIG. 27C). The protocol:
Target AML tumor cells (KG-1 HEL9217, and TF1α) were labeled with Na^51CrO4 and mixed with enriched CD16^+ effector (NK) cells, prepared using PBMCs from normal donors. The effector to target cell ratio was 10:1. […] Macrophages were labeled with CD11b−FITC or CD14-FITC antibody. Flow cytometric analyses of dual labeled (PKH67+CD11b+ or PKH67+CD14+) cells was used to determine specific uptake (phagocytosis). […] Media were collected 18 h later and analyzed by ELISA for IL-8 or MCP-1.

Series [1] concerns primary human macrophages. As to the kind of experiment: Cell viability (CelltiterGlo) of primary human macrophages. Type of series: cell-based. Particulars: 24 to 72 hours of exposure to increasing concentrations (FIG. 8). For orientation: In ATP-based viability assays light output follows the ATP content of the culture.
Description: Macrophages were harvested, counted, and cultured in 96-well plates at 35,000 cells per well. G-CSF-mobilized CD14^+ monocytes (Cambrex) were cultured in 96-well plates at 100,000 cells per well (adherent cells) in sterile polypropylene dishes (non-adherent cells).
Series [2] concerns primary human macrophages. Kind of series: Cytokine, chemokine and growth factor production by primary human macrophages. The format is cell-based. The protocol: Primary human macrophages were generated from long-term cultures of freshly isolated human peripheral blood mononuclear cells (PBMCs; AllCells, Emeryville, Calif. or LifeBlood, Memphis, Tenn.). PBMCs were cultured in tissue culture flasks in RPMI 1640 medium containing glutamine (Invitrogen, Grand Island, N.Y.), 10% heat-inactivated FBS, and antibiotics for 3 to 4 hours. Non-adherent cells were removed by washing with PBS and the adherent cells were cultured in OptiMem-I medium (Invitrogen) containing 1% heat-inactivated FBS for 1 to 2 hours. The cells were washed with PBS and cultured for 10 to 14 days in X-VIVO-15 medium (Cambrex Bio Science, Walkersville, Md.) containing 500 U/ml GM-CSF (Peprotech, Rocky Hill, N.J.).
Tissue culture media was harvested 18 h later for cytokine analyses by ELISA or Searchlight (Pierce Endogen, Rockville, Ill.).

A further series has as its system HEL 92.1.7 cells. Kind of series: Complement-dependent cytotoxicity (CDC) activity. The format is cell-based, human. Particulars: MDR+, CD33-positive HEL 92.1.7 cells (FIG. 4). The procedure: The purpose of this study was to determine whether the cytotoxic effects of an anti-CD33 antibody (HuM195) on AML cells could be enhanced by combination treatment with chemotherapeutic drugs. An MDR^+, CD33-positive AML cell line (HEL 92.1.7) was either untreated or preincubated with the indicated concentrations of thalidomide or 5-azacytidine for two hours prior to exposure to the anti-CD33 Ab. Cytotoxic activity was measured using a complement-dependent cytotoxicity (CDC) activity.

Series [3] has as its target T1, CD33 (Homo sapiens, UniProt P20138). Kind of series: CD33 tyrosine phosphorylation (CD33 immunoprecipitation, anti-phosphotyrosine Western blot). Type of series: cell-based. On the set-up: endogenous in cells; host or cells: HL-60, U937; primary human CD14+ monocytes and PBMC-derived macrophages. The procedure: CD33-positive cell lines were treated with anti-CD33 antibodies (lintuzumab and certain commercially available antibodies). Cell extracts were prepared and CD33 was immunoprecipitated using an anti-CD33 antibody (MY9 clone; Beckman Coulter, Calif.). Western blotting was performed with an anti-phosphotyrosine antibody (4G10; Upstate Biotechnologies, Inc., Lake Placid, N.Y.).
(§2) Deglycosylation was confirmed by CE-SDS. […] Cell lysates were prepared and CD33 immunoprecipitated using an anti-CD33 rabbit polyclonal antibody (Santa Cruz Biotechnology, Santa Cruz, Calif.) prior to SDS PAGE gel electrophoresis. Western blot analyses of these samples were performed using the 4G10 phosphotyrosine antibody (Upstate Biotechnology, Temucula, Calif.), anti-CD33 antibody (NovoCastra, Norwell, Mass.), and anti-SHP-1 antibody (Calbiochem, San Diego, Calif.). Control lysate for SHP-1 was prepared from a B cell lymphoma cell line.
For orientation: In western blotting, separated proteins are transferred to a membrane and probed.

The test system of another series is TF1-α cells. Kind of series: TF1-α disseminated MDR-positive AML model in SCID mice. The format is in vivo.
Description: as §1

In series [4] the target is T1, CD33. Kind of series: Recruitment of SHP-1 / SHP-2 / Syk to CD33 (CD33 immunoprecipitation, Western blot). Type of series: cell-based. On the set-up: endogenous in cells; host or cells: HL-60, U937; primary human CD14+ monocytes and PBMC-derived macrophages. The procedure:
To determine whether the humanized M195 antibody also recruits SHP phosphatases, HL-60 cells were treated with soluble or cross-linked anti-CD33 antibodies. Cell extracts were prepared and CD33 was immunoprecipitated with an anti-CD33 antibody (MY9 clone). Western blotting was performed with an anti-SHP-1 antibody (sc-287; Santa Cruz Biotechnology, Inc., Santa Cruz, Calif.).
as §2, with “To prepare deglycosylated SGN-33, the antibody was treated with PN-glycosidase F (New England BioLabs, Ipswich, Mass.). Deglycosylation” for “Deglycosylation”

T1 sequence (P20138 18-364): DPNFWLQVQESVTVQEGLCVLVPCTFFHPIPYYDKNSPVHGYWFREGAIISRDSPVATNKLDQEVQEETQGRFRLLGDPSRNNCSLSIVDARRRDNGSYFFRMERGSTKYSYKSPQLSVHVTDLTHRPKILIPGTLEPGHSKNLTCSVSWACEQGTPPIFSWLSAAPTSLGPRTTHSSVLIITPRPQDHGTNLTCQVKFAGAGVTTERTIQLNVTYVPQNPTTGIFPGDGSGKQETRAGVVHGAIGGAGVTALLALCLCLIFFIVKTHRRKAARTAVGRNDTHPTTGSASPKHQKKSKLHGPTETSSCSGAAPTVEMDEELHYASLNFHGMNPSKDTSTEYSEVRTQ

For the substance “SGN-33: anti-CD33 antibody, a humanized version of mouse monoclonal antibody M195”, the survival in the series with HEL9217 cells (HEL9217 model, SCID mice, q4dx4, p<0.005 (FIG. 26)) is listed as greater than 80 days; in the series on TF1-α cells (TF1-α model, SCID mice, q4dx4, p<0.005 (FIG. 26)) it was greater than 100 days. Further, the increase of survival result is “greater than 40 days” with HEL9217 cells (MDR-positive HEL9217 model, 4 doses at 10 or 30 mg/kg, p<0.025) and “greater than 40 days” in the series with TF1-α cells (MDR-positive TF1-α model, 4 doses at 10 or 30 mg/kg, p<0.025). Also, in the series with KG-1 AML cell line, the “production of IL-8, IP-10, MIP1β, RANTES and MCP-1” value was “reduced the production of IL-8, IP-10, MIP1β, RANTES, and MCP-1”. Further, in the series with AML tumor cell lines, the “production of cytokines (IL-8 or MCP-1)” value is on record as “reduced cytokine production; also recorded: significantly reduced the production of cytokines”. The “cell viability of macrophages” value in [1] is “not due to an adverse effect; also recorded: does not affect the viability”. For the same substance, in series [2] (macrophages pre-incubated 3 hours with SGN-33, response to IFN-γ or conditioned media from RPMI-8226 and Karpus-620 cells, 24 h), the “production of IL-6, TNF-α, RANTES and MCP-1” value was “reduced production of IL-6, TNF-α, RANTES, and MCP-1”. Moreover, the “levels of TNF-α” value in series [2] (primary human macrophages, various doses 1 hr before IFN-γ, 18 h, p<0.05 (FIG. 20)) is given as “significantly reduced levels of TNF-α in a dose-dependent manner”. Besides, the “lysis of AML cells (CDC)” value in the series with HEL 92.1.7 cells was “increased lysis of AML cell lines in a dose-dependent manner”. In addition, the “phosphorylation of CD33” value in the series with CD33 [3] (HL-60 AML cells (FIG. 16)) is “induced phosphorylation of CD33”. Further, the CD33 tyrosine phosphorylation result with CD33 [3] (HL-60 and U937 cells, soluble or cross-linked antibody (FIG. 2)) is given as “stimulated CD33 tyrosine phosphorylation”; with CD33 [3] (HL-60 cells, soluble and cross-linked antibody (FIG. 1)), “stimulated CD33 tyrosine phosphorylation”. The “recruitment of SHP-1 to the CD33 complex” value with CD33 [4] (HL-60 and monocytes, 30 minutes (FIG. 16)) is recorded as “resulted in recruitment of SHP-1 to the CD33 complex”. For the same substance, in the series with CD33 [4] (HL-60 cells, data not shown), the “recruitment of SHP-2 or Syk” value is listed as “did not recruit SHP-2 or Syk”.
